Assays:
DYRK1A kinase = DYRK1A kinase (Homo sapiens, UniProt Q13627); assay: DYRK1A kinase activity (Ser/Thr 18 peptide Z-lyte FRET assay); format: biochemical; details: recombinant DYRK1A, 30 μM ATP, one hour at room temperature;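 further: kinase activity read as coumarin/fluorescein emission ratio after development step, with unphosphorylated and phosphorylated peptide forms setting 0% and 100% controls, values from dose-response curves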
GSK3β kinase = GSK3β kinase (Homo sapiens, UniProt P49841); assay: GSK3β kinase activity (Ser/Thr 09 peptide Z-lyte FRET assay); format: biochemical; details: recombinant kinase, 46 μM ATP, one hour at room temperature; read-out: EC50
[1] = test system: secreted cytokines TNFα, IL-6 and KC-GRO; assay: Secreted cytokines in Lipopolysaccharide-stimulated BV-2 cells (Table 9 does not say which cytokine); format: cell-based, mouse; details: Mus musculus, BV-2, 5 h; read-out: EC50
[2] = test system: SW480 colon carcinoma cells; assay: Cell viability assay (CellTiter-Glo); details: Homo sapiens; for EC50: SW480, 96 h; for inhibition at 10 µM: SW480, read-out: percent inhibition at 10 μM
[3] = test system: Wnt-responsive Sp5-Luc reporter in SW480 colon carcinoma cells; assay: Screening assay for Wnt activity (Sp5-Luc reporter gene assay); details: Homo sapiens; for EC50: SW480; for inhibition at 10 µM: SW480, read-out: percent inhibition at 10 μM
IL-6 = IL-6 inhibition in LPS-stimulated human peripheral blood mononuclear cells (HTRF); details: Homo sapiens, PBMC; for EC50: 22 h; for inhibition at 10 µM: read-out: percentage in parentheses after EC50 >10
[4] = test system: α-smooth muscle actin (aSMA) positive LL29 cells; assay: Inhibition of the fibrotic process: αSMA staining in TGF-β1 treated LL29 fibroblasts from IPF patients; details: Homo sapiens, Fibroblast; for EC50: 96 h; for inhibition at 10 µM: read-out: percentage in parentheses after EC50 >10

Chain of GSK3β kinase (P49841 whole entry): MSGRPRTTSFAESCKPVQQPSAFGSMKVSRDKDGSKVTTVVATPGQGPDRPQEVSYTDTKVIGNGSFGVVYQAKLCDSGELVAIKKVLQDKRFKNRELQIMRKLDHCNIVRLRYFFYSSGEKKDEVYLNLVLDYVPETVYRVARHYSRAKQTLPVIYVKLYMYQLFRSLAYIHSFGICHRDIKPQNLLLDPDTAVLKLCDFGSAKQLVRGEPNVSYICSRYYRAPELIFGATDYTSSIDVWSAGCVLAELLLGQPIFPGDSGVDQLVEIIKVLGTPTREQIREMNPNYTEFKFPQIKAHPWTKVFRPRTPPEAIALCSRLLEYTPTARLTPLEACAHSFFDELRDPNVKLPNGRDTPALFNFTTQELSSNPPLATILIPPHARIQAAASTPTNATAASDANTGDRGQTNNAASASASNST

Compound	EC50 (DYRK1A kinase) [nM]	EC50 (GSK3β kinase) [nM]	EC50 [1] [nM]	EC50 [2] [nM]	EC50 [3] [nM]	EC50 (IL-6) [nM]	inhibition at 10 µM [2] [%]	inhibition at 10 µM [3] [%]	inhibition at 10 µM (IL-6) [%]	EC50 [4] [nM]	inhibition at 10 µM [4] [%]
Cn1cc(-c2cnc3cnc(NC(=O)CC4CNCCO4)cc3c2)cn1 (stereo not shown) [Compound 2807, N-(3-(1-Methyl-1H-pyrazol-4-yl)-1,7-naphthyridin-6-yl)-2-(morpholin-2-yl) acetamide]	74	4940	919	> 10000	> 10000	7310	7.9	0		> 10000	35.2
Cn1cc(-c2cnc3cnc(NC(=O)C4CCN(Cc5ncco5)CC4)cc3c2)cn1 [Compound 2816, N-(3-(1-Methyl-1H-pyrazol-4-yl)-1,7-naphthyridin-6-yl)-1-(oxazol-2-ylmethyl)piperidine-4-carboxamide]	24	5260	445	> 10000	> 10000	> 10000	23.2	15.4	2.2	> 10000	27.3
Cn1cc(-c2cnc3cnc(NC(=O)C4CCN(Cc5ncccn5)CC4)cc3c2)cn1 [Compound 2820, N-(3-(1-Methyl-1H-pyrazol-4-yl)-1,7-naphthyridin-6-yl)-1-(pyrimidin-2-ylmethyl)piperidine-4-carboxamide]	37	7060	895	> 10000	> 10000	> 10000	22.4	5.3	3.3	8910	
CN1CCCN(CC(=O)Nc2cc3cc(-c4cnn(C)c4)cnc3cn2)CC1 [Compound 2826, 2-(4-Methyl-1,4-diazepan-1-yl)-N-(3-(1-methyl-1H-pyrazol-4-yl)-1,7-naphthyridin-6-yl)acetamide]	82	5370	5300	> 10000	> 10000	> 10000	20.4	11.2	2.1	> 10000	37.9
Cn1cc(-c2cnc3cnc(NC(=O)CCc4ccccc4)cc3c2)cn1 [Compound 2914, N-(3-(1-Methyl-1H-pyrazol-4-yl)-1,7-naphthyridin-6-yl)-3-phenylpropanamide]	28	453	131	692	751	> 10000			5	893	
Cn1cc(-c2cnc3cnc(NC(=O)c4ccc5ccoc5c4)cc3c2)cn1 [Compound 2929, N-(3-(1-Methyl-1H-pyrazol-4-yl)-1,7-naphthyridin-6-yl)benzofuran-6-carboxamide]	17	> 10000	234	1060	835	> 10000			4.5	2250	
CN1CCC(n2cc(C(=O)Nc3cc4cc(-c5cnn(C)c5)cnc4cn3)cn2)CC1 [Compound 2949, N-(3-(1-Methyl-1H-pyrazol-4-yl)-1,7-naphthyridin-6-yl)-1-(1-methylpiperidin-4-yl)-1H-pyrazole-4-carboxamide]	24	> 10000	454	440	59	9150				5150	
CC(C)OC(=O)N1CCC(n2cc(C(=O)Nc3cc4cc(-c5cnn(C)c5)cnc4cn3)cn2)CC1 [Compound 2954, Isopropyl 4-(4-((3-(1-methyl-1H-pyrazol-4-yl)-1,7-naphthyridin-6-yl)carbamoyl)-1H-pyrazol-1-yl)piperidine-1-carboxylate]	28	> 10000	491	1500	915	> 10000			45	3340	
CN1CCN(c2cc(C(=O)Nc3cc4cc(-c5cnn(C)c5N)cnc4cn3)ccn2)CC1 [Compound 3024, N-(3-(5-Amino-1-methyl-1H-pyrazol-4-yl)-1,7-naphthyridin-6-yl)-2-(4-methylpiperazin-1-yl)isonicotinamide]	17	> 10000	1200	3370	2610	> 10000			11.1	> 10000	50
Cn1cc(-c2cnc3cnc(NC(=O)C4CCN(CC5(C(F)(F)F)CC5)CC4)cc3c2)nn1 [Compound 3067, N-(3-(1-Methyl-1H-1,2,3-triazol-4-yl)-1,7-naphthyridin-6-yl)-1-((1-(trifluoromethyl)cyclopropyl)methyl)piperidine-4-carboxamide]	58	836	3900	> 10000	4500	> 10000	42.2		0	> 10000	31.7

These reach a lower EC50 (DYRK1A kinase). Values come first.

EC50 (DYRK1A kinase) [nM]	EC50 (GSK3β kinase) [nM]	EC50 [1] [nM]	EC50 [2] [nM]	EC50 [3] [nM]	EC50 (IL-6) [nM]	Compound	inhibition at 10 µM [2] [%]	inhibition at 10 µM [3] [%]	inhibition at 10 µM (IL-6) [%]	EC50 [4] [nM]	inhibition at 10 µM [4] [%]
16	> 10000	1700	4680	> 10000	> 10000	CN1CCN(c2ccc(C(=O)Nc3cc4cc(-c5cnn(C)c5)cnc4cn3)cn2)CC1 [Compound 2871, N-(3-(1-Methyl-1H-pyrazol-4-yl)-1,7-naphthyridin-6-yl)-6-(4-methylpiperazin-1-yl)nicotinamide]		24.5	0	9770	
12	1150	357	> 10000	> 10000	> 10000	Cn1cc(-c2cnc3cnc(NC(=O)C4CCN(S(C)(=O)=O)CC4)cc3c2)cn1 [Compound 2792, N-(3-(1-Methyl-1H-pyrazol-4-yl)-1,7-naphthyridin-6-yl)-1-(methylsulfonyl) piperidine-4-carboxamide]	29	38.1	4	> 10000	44.8
8	> 10000	127	599	607	1650	CN1CCC2(CC1)CN(c1cc(C(=O)Nc3cc4cc(-c5cnn(C)c5CN5CCCCC5)cnc4cn3)ccn1)C2 [Compound 3032, N-(3-(1-Methyl-5-(piperidin-1-ylmethyl)-1H-pyrazol-4-yl)-1,7-naphthyridin-6-yl)-2-(7-methyl-2,7-diazaspiro[3.5]nonan-2-yl)isonicotinamide]				1580	
8	> 10000	2600	> 10000	> 10000	> 10000	Cn1cncc1-c1cnc2cnc(NC(=O)c3ccc(F)cc3)cc2c1 [Compound 3168, 4-Fluoro-N-(3-(1-methyl-1H-imidazol-5-yl)-1,7-naphthyridin-6-yl) benzamide]	25.8	17.3	0	> 10000	10.2
6	> 10000	≥ 10000	4070	4780	> 10000	Cn1cncc1-c1cnc2cnc(NC(=O)c3ccc4c(c3)CNC4)cc2c1 [Compound 3194, N-(3-(1-Methyl-1H-imidazol-5-yl)-1,7-naphthyridin-6-yl)isoindoline-5-carboxamide]			8.9	> 10000	47.3
